Test results: US12447167B2, “GM-CSF-producing t-cell control agent and Th1/Th2 immune balance regulator” (National Center of Neurology and Psychiatry, priority 2014, dated 2025)

Assay: Disposition after single oral dose, humans (normal subjects)
Type: in vivo, human
Design: concentration in blood: unit not given here
Conditions: for AUC(0-inf) / AUC(0-t) / half-life / Cmax / Tmax: human; for AUC(0-inf) / AUC(0-t) / half-life: blood; for AUC(0-inf) / AUC(0-t) / half-life / Cmax / Tmax / concentration in blood: normal subjects; for Cmax / Tmax: plasma
Procedure: After a single dose of compound 31 labeled with ^14C was orally administered at a predetermined dose to each of a male mouse, a male rat, and a male cynomolgus monkey under fasting conditions, the concentration in blood was measured after a lapse of a given time, and parameters such as maximum plasma concentration Cmax, time Tmax to reach the maximum plasma concentration, half-life t1/2, area under curve AUC0-∞, mean retention time MRT0-∞, and bioavailability BA were calculated. The concentration in blood in humans (normal subjects) was measured and each of the parameters was calculated, in the similar manner as above except that ^14C-unlabeled compound 31 was used.
In the tables, “N.D.” means not detected.
In this context, assuming the body weights of the humans were 60 kg, the doses were corrected to be the same, and the value of AUC0-∞ was compared between the mouse, the rat, and the cynomolgus monkey, and the humans. […] Specifically, AUC0-∞ for the humans was 2.72 to 8.94 times AUC0-∞ for the mouse, 4.77 to 15.7 times AUC0-∞ for the rat, and 6.69 to 22.0 times AUC0-∞ for the cynomolgus monkey.

With `CCCCCCCCCCCCCCCCCCCCCCCC(=O)NC(COC1OC(CO)C(O)C(O)C1O)[C@H](O)C(O)CCCCC` (stereo in doubt) [compound 31, (2S,3S,4R)-1-O-(α-D-galactosyl)-2-(N-tetracosanoylamino)-1,3,4-nonanetriol] the “species difference (fold) of dose-corrected AUC0-∞, human vs cynomolgus monkey” value (“species difference (fold) … vs cynomolgus monkey” below) (human 0.3 mg/body (60 kg assumed) vs cynomolgus monkey 10 mg/kg) was 19.70 fold, the “species difference (fold) of dose-corrected AUC0-∞, human vs mouse” value (from here on “species difference (fold) … vs mouse”) (human 0.3 mg/body (60 kg assumed) vs mouse 5 mg/kg) was 8.01 fold and the “species difference (fold) of dose-corrected AUC0-∞, human vs rat” value (shortened to “species difference (fold) … vs rat”) (human 0.3 mg/body (60 kg assumed) vs rat 10 mg/kg) was 14.05 fold. For the same compound, the “species difference (fold) … vs cynomolgus monkey” value (human 1 mg/body (60 kg assumed) vs cynomolgus monkey 10 mg/kg) was 21.99 fold, the “species difference (fold) … vs mouse” value (human 1 mg/body (60 kg assumed) vs mouse 5 mg/kg) was 8.94 fold and the “species difference (fold) … vs rat” value (human 1 mg/body (60 kg assumed) vs rat 10 mg/kg) was 15.69 fold. The “species difference (fold) … vs cynomolgus monkey” value (human 3 mg/body (60 kg assumed) vs cynomolgus monkey 10 mg/kg) was 12.29 fold, the “species difference (fold) … vs mouse” value (human 3 mg/body (60 kg assumed) vs mouse 5 mg/kg) was 5.00 fold and the “species difference (fold) … vs rat” value (human 3 mg/body (60 kg assumed) vs rat 10 mg/kg) was 8.77 fold. For the same compound, the “species difference (fold) … vs cynomolgus monkey” value (human 10 mg/body (60 kg assumed) vs cynomolgus monkey 10 mg/kg) was 9.62 fold, the “species difference (fold) … vs mouse” value (human 10 mg/body (60 kg assumed) vs mouse 5 mg/kg) was 3.91 fold and the “species difference (fold) … vs rat” value (human 10 mg/body (60 kg assumed) vs rat 10 mg/kg) was 6.86 fold. For the same compound, the “species difference (fold) … vs cynomolgus monkey” value (human 30 mg/body (60 kg assumed) vs cynomolgus monkey 10 mg/kg) was 6.69 fold, the “species difference (fold) … vs mouse” value (human 30 mg/body (60 kg assumed) vs mouse 5 mg/kg) was 2.72 fold and the “species difference (fold) … vs rat” value (human 30 mg/body (60 kg assumed) vs rat 10 mg/kg) was 4.77 fold. For the same compound, the AUC(0-inf) (0.3 mg/body oral) was 23.4 ng·h/mL, the AUC(0-t) (0.3 mg/body oral) was 11.7 ng·h/mL and the half-life (0.3 mg/body oral) was 21.4 h. The AUC(0-inf) (1 mg/body oral) was 87.1 ng·h/mL, the AUC(0-t) (1 mg/body oral) was 63.4 ng·h/mL and the half-life (1 mg/body oral) was 44.3 h. The AUC(0-inf) (3 mg/body oral) was 146 ng·h/mL, the AUC(0-t) (3 mg/body oral) was 121 ng·h/mL and the half-life (3 mg/body oral) was 47.8 h. For the same compound, the AUC(0-inf) (10 mg/body oral) was 381 ng·h/mL, the AUC(0-t) (10 mg/body oral) was 324 ng·h/mL and the half-life (10 mg/body oral) was 45.3 h. For the same compound, the AUC(0-inf) (30 mg/body oral) was 795 ng·h/mL, the AUC(0-t) (30 mg/body oral) was 657 ng·h/mL and the half-life (30 mg/body oral) was 53.6 h. The Cmax (0.3 mg/body oral) was 0.629 ng/mL, the Tmax (0.3 mg/body oral) was 13 h and the Cmax (1 mg/body oral) was 1.49 ng/mL. For the same compound, the Tmax (1 mg/body oral) was 20.7 h, the Cmax (3 mg/body oral) was 2.11 ng/mL and the Tmax (3 mg/body oral) was 28.3 h. The Cmax (10 mg/body oral) was 6.01 ng/mL, the Tmax (10 mg/body oral) was 26.3 h and the Cmax (30 mg/body oral) was 9.81 ng/mL. It also gave a Tmax (30 mg/body oral) of 28.3 h, a concentration in blood (0.3 mg/body oral, 6 h) of 0.368 and a concentration in blood (0.3 mg/body oral, 13 h) of 0.629. For the same compound, the concentration in blood (0.3 mg/body oral, 21 h) was 0.365, the concentration in blood (0.3 mg/body oral, 24 h) was 0.31 and the concentration in blood (0.3 mg/body oral, 30 h) was 0.382. It also gave a concentration in blood (1 mg/body oral, 6 h) of 0.368, a concentration in blood (1 mg/body oral, 13 h) of 1.39 and a concentration in blood (1 mg/body oral, 21 h) of 1.04. It also gave a concentration in blood (1 mg/body oral, 24 h) of 0.98, a concentration in blood (1 mg/body oral, 30 h) of 0.961 and a concentration in blood (1 mg/body oral, 36 h) of 1.01. It also gave a concentration in blood (1 mg/body oral, 48 h) of 0.719, a concentration in blood (1 mg/body oral, 72 h) of 0.484 and a concentration in blood (1 mg/body oral, 96 h) of 0.224. The concentration in blood (3 mg/body oral, 6 h) was 0.337, the concentration in blood (3 mg/body oral, 13 h) was 1.13 and the concentration in blood (3 mg/body oral, 21 h) was 1.33. It also gave a concentration in blood (3 mg/body oral, 24 h) of 1.33, a concentration in blood (3 mg/body oral, 30 h) of 1.7 and a concentration in blood (3 mg/body oral, 36 h) of 1.99. For the same compound, the concentration in blood (3 mg/body oral, 48 h) was 1.37, the concentration in blood (3 mg/body oral, 72 h) was 0.838 and the concentration in blood (3 mg/body oral, 96 h) was 0.549. It also gave a concentration in blood (3 mg/body oral, 144 h) of 0.266, a concentration in blood (10 mg/body oral, 6 h) of 2.01 and a concentration in blood (10 mg/body oral, 13 h) of 3.32. The concentration in blood (10 mg/body oral, 21 h) was 3.15, the concentration in blood (10 mg/body oral, 24 h) was 3.33 and the concentration in blood (10 mg/body oral, 30 h) was 3.76. For the same compound, the concentration in blood (10 mg/body oral, 36 h) was 5.37, the concentration in blood (10 mg/body oral, 48 h) was 3.66 and the concentration in blood (10 mg/body oral, 72 h) was 2.23. The concentration in blood (10 mg/body oral, 96 h) was 1.42, the concentration in blood (10 mg/body oral, 144 h) was 0.689 and the concentration in blood (30 mg/body oral, 6 h) was 2.82. The concentration in blood (30 mg/body oral, 13 h) was 6.65, the concentration in blood (30 mg/body oral, 21 h) was 6.98 and the concentration in blood (30 mg/body oral, 24 h) was 7.47. It also gave a concentration in blood (30 mg/body oral, 30 h) of 8.08, a concentration in blood (30 mg/body oral, 36 h) of 9.46 and a concentration in blood (30 mg/body oral, 48 h) of 6.58. It also gave a concentration in blood (30 mg/body oral, 72 h) of 4.65, a concentration in blood (30 mg/body oral, 96 h) of 3.05 and a concentration in blood (30 mg/body oral, 144 h) of 1.82.
